Experimental data taken from patent US11130756B2, “[1,2,4]Triazolo[4,3-A]pyridinyl substituted indole compounds” (BRISTOL-MYERS SQUIBB COMPANY, priority 2017, dated 2021).

What was measured:
Assay type in all cases: cell-based
human TLR7 = target: T1, human TLR7 (Homo sapiens, UniProt Q9NYK1); test: TLR7 inhibition reporter assay (HEK-Blue, SEAP); conditions: HEK-Blue cells overexpressing human TLR7, gardiquimod 7.5 μM, 22 hour incubation
T1 construct: host or cells: HEK-Blue cells
T1 sequence (Q9NYK1 27-1049): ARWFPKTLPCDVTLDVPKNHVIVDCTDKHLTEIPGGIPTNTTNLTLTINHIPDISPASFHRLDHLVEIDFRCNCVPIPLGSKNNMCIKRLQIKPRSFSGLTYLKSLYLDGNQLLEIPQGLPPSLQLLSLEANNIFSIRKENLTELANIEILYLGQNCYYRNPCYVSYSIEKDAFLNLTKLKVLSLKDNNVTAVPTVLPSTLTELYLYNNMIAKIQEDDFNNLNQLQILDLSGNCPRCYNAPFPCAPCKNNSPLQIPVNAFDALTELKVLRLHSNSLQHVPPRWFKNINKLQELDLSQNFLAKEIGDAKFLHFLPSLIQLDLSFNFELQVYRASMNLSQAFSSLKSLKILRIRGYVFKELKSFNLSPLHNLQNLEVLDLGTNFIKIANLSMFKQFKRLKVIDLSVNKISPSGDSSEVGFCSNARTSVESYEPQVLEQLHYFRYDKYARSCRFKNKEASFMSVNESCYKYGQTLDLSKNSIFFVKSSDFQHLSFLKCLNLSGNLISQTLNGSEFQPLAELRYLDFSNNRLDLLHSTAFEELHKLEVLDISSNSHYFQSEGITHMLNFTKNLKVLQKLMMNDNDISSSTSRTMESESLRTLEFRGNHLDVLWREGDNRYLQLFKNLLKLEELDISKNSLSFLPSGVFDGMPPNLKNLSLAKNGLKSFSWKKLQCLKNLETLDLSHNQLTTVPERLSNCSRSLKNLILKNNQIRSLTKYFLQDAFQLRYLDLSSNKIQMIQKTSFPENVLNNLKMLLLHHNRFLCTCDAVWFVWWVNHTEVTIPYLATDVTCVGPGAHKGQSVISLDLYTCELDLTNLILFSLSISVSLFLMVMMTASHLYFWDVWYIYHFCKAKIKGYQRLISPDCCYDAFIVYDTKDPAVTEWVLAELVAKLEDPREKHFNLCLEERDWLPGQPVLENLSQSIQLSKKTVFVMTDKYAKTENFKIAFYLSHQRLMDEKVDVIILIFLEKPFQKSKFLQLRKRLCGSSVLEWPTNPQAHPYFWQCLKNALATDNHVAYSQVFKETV
In short: (§1)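 Human TLR7/8/9 HEK-Blue reporter lines; dose range 0.05 nM–50 μM; 30 min RT preincubation; stimulus gardiquimod 7.5 μM / R848 15.9 μM / ODN2006 5 nM respectively; 22 h, 37 °C; SEAP detected colorimetrically.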

human TLR9 = target: T2, human TLR9 (Homo sapiens, UniProt Q9NR96); test: TLR9 inhibition reporter assay (HEK-Blue, SEAP); conditions: HEK-Blue cells overexpressing human TLR9, ODN2006 5 nM, 22 hour incubation
T2 construct: host or cells: HEK-Blue cells
T2 sequence (Q9NR96 26-1032): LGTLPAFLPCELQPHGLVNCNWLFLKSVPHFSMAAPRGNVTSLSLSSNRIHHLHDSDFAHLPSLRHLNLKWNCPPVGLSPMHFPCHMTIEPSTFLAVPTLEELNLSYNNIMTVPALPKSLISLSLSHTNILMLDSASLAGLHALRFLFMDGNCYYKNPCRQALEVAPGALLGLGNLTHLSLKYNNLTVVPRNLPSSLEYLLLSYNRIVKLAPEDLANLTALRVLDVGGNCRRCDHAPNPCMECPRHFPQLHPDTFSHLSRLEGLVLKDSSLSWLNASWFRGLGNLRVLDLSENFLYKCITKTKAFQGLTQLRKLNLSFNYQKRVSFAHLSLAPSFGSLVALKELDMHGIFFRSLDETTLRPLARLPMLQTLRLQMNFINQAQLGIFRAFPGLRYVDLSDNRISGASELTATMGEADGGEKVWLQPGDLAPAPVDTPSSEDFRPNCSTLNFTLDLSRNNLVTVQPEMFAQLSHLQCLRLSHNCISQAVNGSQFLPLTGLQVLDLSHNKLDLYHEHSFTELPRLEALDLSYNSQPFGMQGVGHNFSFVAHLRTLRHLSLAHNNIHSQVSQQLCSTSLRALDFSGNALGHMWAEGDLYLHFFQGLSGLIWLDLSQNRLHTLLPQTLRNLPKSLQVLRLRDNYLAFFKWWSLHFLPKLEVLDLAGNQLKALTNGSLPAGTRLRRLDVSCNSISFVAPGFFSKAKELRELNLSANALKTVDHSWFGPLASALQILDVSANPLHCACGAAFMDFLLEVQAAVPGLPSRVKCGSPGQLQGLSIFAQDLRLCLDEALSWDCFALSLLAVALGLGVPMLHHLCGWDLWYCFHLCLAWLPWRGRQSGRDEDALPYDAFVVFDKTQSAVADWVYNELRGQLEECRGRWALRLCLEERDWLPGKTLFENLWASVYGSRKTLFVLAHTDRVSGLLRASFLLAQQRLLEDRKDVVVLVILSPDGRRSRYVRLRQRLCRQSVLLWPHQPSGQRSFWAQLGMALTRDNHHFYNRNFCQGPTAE
In short: as §1

human TLR8 = target: T3, human TLR8 (Homo sapiens, UniProt Q9NR97); test: TLR8 inhibition reporter assay (HEK-Blue, SEAP); conditions: HEK-Blue cells overexpressing human TLR8, R848 15.9 μM, 22 hour incubation
T3 construct: host or cells: HEK-Blue cells
T3 sequence (Q9NR97 27-1041): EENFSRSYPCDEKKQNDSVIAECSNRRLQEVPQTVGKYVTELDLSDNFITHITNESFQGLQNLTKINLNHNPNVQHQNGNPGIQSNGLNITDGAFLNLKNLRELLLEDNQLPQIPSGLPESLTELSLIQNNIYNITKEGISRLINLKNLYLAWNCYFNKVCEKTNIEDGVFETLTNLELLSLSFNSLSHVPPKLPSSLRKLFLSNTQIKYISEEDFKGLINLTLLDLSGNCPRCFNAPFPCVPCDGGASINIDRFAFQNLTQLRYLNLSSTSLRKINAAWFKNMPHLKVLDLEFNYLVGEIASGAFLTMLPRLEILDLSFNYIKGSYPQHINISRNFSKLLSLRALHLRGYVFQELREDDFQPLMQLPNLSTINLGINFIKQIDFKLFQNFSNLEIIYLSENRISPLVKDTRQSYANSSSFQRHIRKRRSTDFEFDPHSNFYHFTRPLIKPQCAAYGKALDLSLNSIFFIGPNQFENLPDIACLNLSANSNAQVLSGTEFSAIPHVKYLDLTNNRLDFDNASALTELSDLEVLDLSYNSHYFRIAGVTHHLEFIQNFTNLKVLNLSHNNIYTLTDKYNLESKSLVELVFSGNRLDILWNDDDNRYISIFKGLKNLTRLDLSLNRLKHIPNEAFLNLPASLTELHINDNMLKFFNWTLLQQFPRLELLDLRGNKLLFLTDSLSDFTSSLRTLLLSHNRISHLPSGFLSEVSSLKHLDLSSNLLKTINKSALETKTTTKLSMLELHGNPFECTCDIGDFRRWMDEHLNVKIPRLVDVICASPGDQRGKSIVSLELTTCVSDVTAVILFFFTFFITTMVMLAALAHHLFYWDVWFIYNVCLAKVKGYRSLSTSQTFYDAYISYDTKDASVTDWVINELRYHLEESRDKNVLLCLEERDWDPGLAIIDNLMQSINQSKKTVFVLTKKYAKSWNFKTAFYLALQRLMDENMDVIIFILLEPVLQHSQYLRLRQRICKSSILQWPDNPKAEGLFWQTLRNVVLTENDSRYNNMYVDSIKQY
In short: as §1

Row | Structure (SMILES) | IC50 (human TLR7) [µM] | IC50 (human TLR9) [µM] | IC50 (human TLR8) [µM]
1 | Cc1c(-c2[nH]c3ccc(C4CCN(CC5(C)COC5)CC4)cc3c2C(C)C)cn2cnnc2c1Cl [Example 80, 8-chloro-6-(3-isopropyl-5-(1-((3-methyloxetan-3-yl)methyl)piperidin-4-yl)-1H-indol-2-yl)-7-methyl-[1,2,4]triazolo[4,3-a)pyridine] | 0.0023 | 4.55 | 0.0058
2 | Cc1cc2nncn2cc1-c1[nH]c2ccc(C3CCN(C4COC4)CC3)cc2c1C(C)C [Example 66, 6-(3-isopropyl-5-(1-(oxetan-3-yl)piperidin-4-yl)-1H-indol-2-yl)-7-methyl-[1,2,4]triazolo[4,3-a]pyridine] | 0.0555 | 18.6 | 1.03
3 | Cc1c(-c2[nH]c3ccc(C4CCN(C5CC(C)OC(C)C5)CC4)cc3c2C(C)C)cn2cnnc2c1C (stereo not drawn) [Example 92, 6-(5-(1-(2,6-dimethyltetrahydro-2H-pyran-4-yl)piperidin-4-yl)-3-isopropyl-1H-indol-2-yl)-7,8-dimethyl-[1,2,4]triazolo[4,3-a] pyridine] | 0.0056 | 3.27 | 0.0152
4 | Cc1cc(-c2[nH]c3ccc(C4CCN(C5COC5)CC4)cc3c2C(C)C)cn2cnnc12 [Example 63, 6-(3-isopropyl-5-(1-(oxetan-3-yl)piperidin-4-yl)-1H-indol-2-yl)-8-methyl-[1,2,4]triazolo[4,3-a]pyridine] | 0.0017 | 10.8 | 0.0076

Continued, values first:

Row | IC50 (human TLR7) [µM] | IC50 (human TLR9) [µM] | IC50 (human TLR8) [µM] | Structure (SMILES)
5 | 0.0486 | 1.66 | 0.0296 | Cc1nnc2ccc(-c3[nH]c4ccc(C5CCN(CC(=O)N(C)C)CC5)cc4c3C(C)C)cn12 [Example 19, 2-(4-(3-isopropyl-2-(3-methyl-[1,2,4]triazolo[4,3-a]pyridin-6-yl)-1H-indol-5-yl)piperidin-1-yl)-N,N-dimethylacetamide]
6 | 0.136 | ≥ 50 | 0.0176 | Cc1nnc2ccc(-c3[nH]c4ccc(C5CCN(Cc6ncn(C)n6)CC5)cc4c3C(C)C)cn12 [Example 22, 6-(3-isopropyl-5-(1-((1-methyl-1H-1,2,4-triazol-3-yl)methyl)piperidin-4-yl)-1H-indol-2-yl)-3-methyl-[1,2,4]triazolo[4,3-a]pyridine]
7 | 0.0003 | 3.11 | 0.0013 | Cc1cc(-c2[nH]c3ccc(C4CCN(CC5COC5)CC4)cc3c2C(C)C)cn2cnnc12 [Example 30, 6-(3-isopropyl-5-(1-(oxetan-3-ylmethyl)piperidin-4-yl)-1H-indol-2-yl)-8-methyl-[1,2,4]triazolo[4,3-a]pyridine]
8 | 0.0003 | 1.52 | 0.0065 | Cc1cc(-c2[nH]c3ccc(C4CCN(CC#N)CC4)cc3c2C(C)C)cn2cnnc12 [Example 37, 2-(4-(3-isopropyl-2-(8-methyl-[1,2,4]triazolo[4,3-a]pyridin-6-yl)-1H-indol-5-yl)piperidin-1-yl)acetonitrile]
9 | 0.0052 | 0.486 | 0.0189 | Cc1cc(-c2[nH]c3ccc(C4CCNCC4)cc3c2C(C)C)cn2c(C)nnc12 [Example 6, 6-(3-isopropyl-5-(piperidin-4-yl)-1H-indol-2-yl)-3,8-dimethyl-[1,2,4]triazolo[4,3-a]pyridine]
